According to US20240294543A1, “CYCLOHEPTA-THIENO-DIAZEPINE DERIVATIVES AS GABA A GAMMA1 PAM” (Hoffmann-La Roche Inc., priority 2021, published 2024):

Experiments:
[1] = target: human GABAA α5β2γ1 receptor (Homo sapiens (Human), UniProt P31644+Q8N1C3); assay: Radioligand binding assay, competition for [3H]RO7239181, γ1-containing GABAA subtypes
h-GABA-A α2β2γ1 = h-GABA-A α2β2γ1 (Homo sapiens (Human), UniProt P47869+Q8N1C3); assay: Two-electrode voltage clamp electrophysiology in Xenopus oocytes expressing GABAA receptors; format: cell-based; conditions: for Efficacy (GABA) %: % modulation of GABA EC20 = 100*(Fold increase−1), compound at about 30-fold its Ki α2β2γ1; for Fold increase h-GABA-A α2β2γ1 oocyte @ 30-fold Ki: Xenopus oocytes, GABA EC20, compound at about 30-fold its Ki α2β2γ1
In short: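 Xenopus oocytes injected with receptor subunit RNA and recorded 3–5 days later by two-electrode voltage clamp at −80 mV, room temperature, pH 7.4. GABA applied at EC20 for 1.5 min, with and without test compound. Efficacy = extremum of the point-by-point ratio of the two responses, expressed as % modulation of GABA EC20; ≥3 oocytes per concentration.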

SMILES	Ki [1]	Efficacy (GABA) % (h-GABA-A α2β2γ1)	Fold increase h-GABA-A α2β2γ1 oocyte @ 30-fold Ki (h-GABA-A α2β2γ1)
C[C@@H]1N=C(c2c(F)cccc2F)c2c(sc3c2COC[C@H](C)O3)-n2nc(C(=O)N3CC(F)C3)nc21 [Example 40, [(7S,15S)-9-(2,6-difluorophenyl)-7,15-dimethyl-13,16-dioxa-18-thia-2,3,5,8-tetrazatetracyclo[8.8.0.02,6.011,17]octadeca-1(10),3,5,8,11(17)-pentaen-4-yl]-(3-fluoroazetidin-1-yl)methanone]	2.65 nM	141%	2.41
C[C@@H]1N=C(c2c(F)cccc2F)c2c(sc3c2COCCO3)-n2nc(C(=O)N3CCC3)nc21 [Example 22, azetidin-1-yl-[(7S)-9-(2,6-difluorophenyl)-7-methyl-13,16-dioxa-18-thia-2,3,5,8-tetrazatetracyclo[8.8.0.02,6.011,17]octadeca-1(10),3,5,8,11(17)-pentaen-4-yl]methanone]	1.12 nM	88%	1.88
C[C@@H]1N=C(c2c(F)cccc2F)c2c(sc3c2CCCCC3)-n2c(-c3cccnn3)nnc21 [Example 4, (7S)-9-(2,6-difluorophenyl)-7-methyl-3-pyridazin-3-yl-18-thia-2,4,5,8-tetrazatetracyclo[8.8.0.02,6.011,17]octadeca-1(10),3,5,8,11(17)-pentaene]	8.65 nM	119%	2.19
C[C@@H]1N=C(c2c(F)cccc2F)c2c(sc3c2COCCC3)-n2nc(C(=O)N[C@H]3C[C@H](O)C3)nc21 [Example 63, (7S)-9-(2,6-difluorophenyl)-N-(trans-3-hydroxycyclobutyl)-7-methyl-13-oxa-18-thia-2,3,5,8-tetrazatetracyclo[8.8.0.02,6.011,17]octadeca-1(10),3,5,8,11(17)-pentaene-4-carboxamide]	8.1 nM	169%	2.69
Cc1nc2n(n1)-c1sc3c(c1C(c1c(F)cccc1F)=N[C@H]2C)CCCCC3 [Example 20, (7S)-9-(2,6-difluorophenyl)-4,7-dimethyl-18-thia-2,3,5,8-tetrazatetracyclo[8.8.0.02,6.011,17]octadeca-1(10),3,5,8,11(17)-pentaene]	0.98 nM	76%	1.76
Cc1nc2n(n1)-c1sc3c(c1C(c1c(F)cccc1F)=N[C@H]2C)COC[C@H](C)O3 [Example 39, (7S,15S)-9-(2,6-difluorophenyl)-4,7,15-trimethyl-13,16-dioxa-18-thia-2,3,5,8-tetrazatetracyclo[8.8.0.02,6.011,17]octadeca-1(10),3,5,8,11(17)-pentaene]	3.47 nM	150%	2.50
